{"source": "ChEMBL document CHEMBL4680314", "about": "“Discovery of potent glycogen synthase kinase 3/cholinesterase inhibitors with neuroprotection as potential therapeutic agent for Alzheimer's disease” (Bioorg Med Chem, 2021)", "key": {"[1]": {"experiment": "Clearance in Sprague-Dawley rat at 5 mg/kg, iv measured upto 24 hrs by LC-MS/MS analysis", "format": "ADME, organism-based", "settings": "in vivo"}, "BV-2 [2]": {"tested_on": "BV-2", "experiment": "Anti-inflammatory activity in mouse BV-2 cells assessed as reduction in LPS-induced TNFalpha production incubated for 1 hr followed by LPS stimulation and measured after 24 hrs by ELISA", "format": "functional, cell-based", "settings": "dose 2-8 µM, time 25.0 hrs"}, "Mus musculus": {"tested_on": "Mus musculus", "experiment": "Cognitive enhancing effect in ICR mouse model of scopolamine-induced cognitive dysfunction assessed as reduction in memory impairment by measuring increase in number of virtual platform crossings at 15 mg/kg, po by Morris water maze test", "format": "functional, organism-based"}, "[3]": {"target": "Cyclin-dependent kinase 6 (Homo sapiens, UniProt Q00534)", "sequence (Q00534 whole entry)": "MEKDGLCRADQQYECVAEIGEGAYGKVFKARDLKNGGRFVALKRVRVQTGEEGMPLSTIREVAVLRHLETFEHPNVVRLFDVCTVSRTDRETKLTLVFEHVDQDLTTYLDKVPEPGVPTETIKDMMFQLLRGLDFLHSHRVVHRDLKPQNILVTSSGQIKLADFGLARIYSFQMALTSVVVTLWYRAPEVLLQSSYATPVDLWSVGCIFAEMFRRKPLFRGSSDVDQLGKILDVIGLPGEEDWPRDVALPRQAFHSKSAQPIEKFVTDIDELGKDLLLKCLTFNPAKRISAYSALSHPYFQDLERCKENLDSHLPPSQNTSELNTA", "experiment": "Inhibition of CDK6 (unknown origin) by ATP competitive based analysis"}, "Homo sapiens [4]": {"species_on_record": "Homo sapiens", "experiment": "Selectivity index, ratio of IC50 for CDK6 (unknown origin) to IC50 for GSK-3 beta (unknown origin) by ATP competitive based analysis"}, "[5]": {"experiment": "Half life in Sprague-Dawley rat at 5 mg/kg, iv measured upto 24 hrs by LC-MS/MS analysis", "format": "ADME, organism-based", "settings": "in vivo"}, "Homo sapiens [6]": {"species_on_record": "Homo sapiens", "experiment": "Selectivity index, ratio of IC50 for p38MAPK gamma (unknown origin) to IC50 for GSK-3 beta (unknown origin) by ATP competitive based analysis"}, "[7]": {"target": "Mitogen-activated protein kinase 11 (Homo sapiens, UniProt Q15759)", "sequence (Q15759 whole entry)": "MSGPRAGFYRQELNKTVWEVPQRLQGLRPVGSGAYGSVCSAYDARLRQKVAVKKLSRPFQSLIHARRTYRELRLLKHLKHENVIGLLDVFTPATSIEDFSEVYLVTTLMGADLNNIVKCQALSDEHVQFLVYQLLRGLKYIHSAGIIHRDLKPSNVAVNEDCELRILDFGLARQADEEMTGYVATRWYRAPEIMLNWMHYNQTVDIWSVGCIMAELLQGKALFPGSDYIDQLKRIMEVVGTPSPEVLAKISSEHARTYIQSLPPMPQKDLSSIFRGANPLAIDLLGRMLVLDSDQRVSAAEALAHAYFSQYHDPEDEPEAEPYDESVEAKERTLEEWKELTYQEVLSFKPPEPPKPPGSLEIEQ", "experiment": "Inhibition of p38MAPK beta (unknown origin) by ATP competitive based analysis"}, "[8]": {"target": "Cyclin-dependent kinase 4 (Homo sapiens, UniProt P11802)", "sequence (P11802 whole entry)": "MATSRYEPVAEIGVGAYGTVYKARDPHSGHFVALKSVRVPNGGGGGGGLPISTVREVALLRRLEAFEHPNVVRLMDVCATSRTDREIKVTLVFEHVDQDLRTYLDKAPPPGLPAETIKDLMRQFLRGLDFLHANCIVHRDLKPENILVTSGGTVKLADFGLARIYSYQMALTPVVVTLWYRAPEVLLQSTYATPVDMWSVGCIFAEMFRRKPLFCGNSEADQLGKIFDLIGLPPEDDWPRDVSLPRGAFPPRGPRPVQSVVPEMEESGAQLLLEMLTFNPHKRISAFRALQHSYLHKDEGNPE", "experiment": "Inhibition of CDK4 (unknown origin) by ATP competitive based analysis"}, "[9]": {"target": "Dual specificity tyrosine-phosphorylation-regulated kinase 1B (Homo sapiens, UniProt Q9Y463)", "sequence (Q9Y463 whole entry)": "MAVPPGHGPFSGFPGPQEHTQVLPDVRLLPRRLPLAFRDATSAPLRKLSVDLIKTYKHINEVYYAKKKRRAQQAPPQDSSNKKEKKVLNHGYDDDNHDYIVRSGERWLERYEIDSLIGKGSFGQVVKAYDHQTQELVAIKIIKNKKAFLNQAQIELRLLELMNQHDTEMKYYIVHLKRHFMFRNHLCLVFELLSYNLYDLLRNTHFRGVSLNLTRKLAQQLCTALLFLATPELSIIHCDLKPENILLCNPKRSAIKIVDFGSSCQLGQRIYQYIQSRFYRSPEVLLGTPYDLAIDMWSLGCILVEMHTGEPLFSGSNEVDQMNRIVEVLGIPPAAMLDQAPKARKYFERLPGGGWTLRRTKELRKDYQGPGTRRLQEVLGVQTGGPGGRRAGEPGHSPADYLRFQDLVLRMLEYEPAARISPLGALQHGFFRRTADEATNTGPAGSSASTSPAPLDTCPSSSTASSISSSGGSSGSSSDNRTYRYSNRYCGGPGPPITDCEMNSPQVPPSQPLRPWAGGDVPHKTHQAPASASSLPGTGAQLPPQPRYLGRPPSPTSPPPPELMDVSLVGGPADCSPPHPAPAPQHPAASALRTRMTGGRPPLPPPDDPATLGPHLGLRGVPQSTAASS", "experiment": "Inhibition of DYRK1B (unknown origin) by ATP competitive based analysis"}, "N2a": {"tested_on": "N2a", "experiment": "Effect on tau protein level in mouse N2a cells overexpressing human tau at 0.074 to 6 uM incubated for 6 hrs by Western blot analysis", "format": "functional, cell-based", "settings": "dose 0.074-6 µM"}, "Homo sapiens [10]": {"species_on_record": "Homo sapiens", "experiment": "Selectivity index, ratio of IC50 for CDK4 (unknown origin) to IC50 for GSK-3 beta (unknown origin) by ATP competitive based analysis"}, "Homo sapiens [11]": {"species_on_record": "Homo sapiens", "experiment": "Selectivity index, ratio of IC50 for […] IC50 for GSK-3 beta (unknown origin) by ATP competitive based analysis"}, "[12]": {"experiment": "Ratio of drug level in ICR mouse brain to blood at 15 mg/kg, po measured after 90 mins by LC-MS/MS analysis", "format": "ADME, organism-based", "settings": "1.5 h"}, "[13]": {"target": "Mitogen-activated protein kinase 3 (Homo sapiens, UniProt P27361)", "sequence (P27361 whole entry)": "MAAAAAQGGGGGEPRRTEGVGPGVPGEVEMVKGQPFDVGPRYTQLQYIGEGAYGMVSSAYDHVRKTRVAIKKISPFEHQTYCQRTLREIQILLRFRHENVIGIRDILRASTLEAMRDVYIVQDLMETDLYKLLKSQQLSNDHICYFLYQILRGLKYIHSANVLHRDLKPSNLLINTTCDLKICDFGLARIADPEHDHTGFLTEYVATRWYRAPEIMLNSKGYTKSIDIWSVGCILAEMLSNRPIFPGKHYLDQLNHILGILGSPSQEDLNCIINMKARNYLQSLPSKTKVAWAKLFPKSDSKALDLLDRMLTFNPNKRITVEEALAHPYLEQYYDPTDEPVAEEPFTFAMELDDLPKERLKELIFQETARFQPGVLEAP", "experiment": "Inhibition of ERK1 (unknown origin) by ATP competitive based analysis"}, "[14]": {"target": "Glycogen synthase kinase-3 beta (Mus musculus) (UniProt Q9WV60)", "sequence (Q9WV60 whole entry, looked up)": "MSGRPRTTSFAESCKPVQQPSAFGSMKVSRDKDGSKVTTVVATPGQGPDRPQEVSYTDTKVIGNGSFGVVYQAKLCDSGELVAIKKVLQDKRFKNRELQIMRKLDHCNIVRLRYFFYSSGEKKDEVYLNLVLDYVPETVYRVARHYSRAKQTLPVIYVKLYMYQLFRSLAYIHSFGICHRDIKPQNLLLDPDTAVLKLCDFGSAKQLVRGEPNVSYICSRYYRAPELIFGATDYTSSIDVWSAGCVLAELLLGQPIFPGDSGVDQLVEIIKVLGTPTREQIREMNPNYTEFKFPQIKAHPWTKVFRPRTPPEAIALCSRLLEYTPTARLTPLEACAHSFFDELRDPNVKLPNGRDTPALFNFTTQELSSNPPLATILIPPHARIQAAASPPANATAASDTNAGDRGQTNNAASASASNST", "experiment": "Inhibition of GSK3beta in mouse N2a cells overexpressing human tau assessed as tau phosphorylation at Ser396 residue at 2 uM incubated for 6 hrs by Western blot analysis (reference value: […] %)", "format": "cell-based", "set-up": "scale not given: the % may be the effect or the level left"}, "[15]": {"experiment": "AUC (0 to 24 hrs) in Sprague-Dawley rat at 5 mg/kg, iv measured upto 24 hrs by LC-MS/MS analysis", "format": "ADME, organism-based", "set-up": "route intravenous, dose 5 mg/kg, time <=24", "settings": "in vivo"}, "Homo sapiens [16]": {"species_on_record": "Homo sapiens", "experiment": "Selectivity index, ratio of IC50 for CDK9 (unknown origin) to IC50 for GSK-3 beta (unknown origin) by ATP competitive based analysis"}, "[17]": {"experiment": "MRT (0 to t) in Sprague-Dawley rat at 10 mg/kg, po measured upto 24 hrs by LC-MS/MS analysis", "format": "ADME, organism-based", "settings": "in vivo"}, "BV-2 [18]": {"tested_on": "BV-2", "experiment": "Anti-inflammatory activity in mouse BV-2 cells assessed as reduction in LPS-induced ROS production at 3 uM incubated for 1 hr followed by LPS stimulation and measured after 24 hrs by DCFH-DA staining based inverted fluorescence microscopy", "format": "functional, cell-based", "settings": "time 25.0 hrs"}, "[19]": {"target": "Cyclin-dependent kinase 9 (Homo sapiens, UniProt P50750)", "sequence (P50750 whole entry)": "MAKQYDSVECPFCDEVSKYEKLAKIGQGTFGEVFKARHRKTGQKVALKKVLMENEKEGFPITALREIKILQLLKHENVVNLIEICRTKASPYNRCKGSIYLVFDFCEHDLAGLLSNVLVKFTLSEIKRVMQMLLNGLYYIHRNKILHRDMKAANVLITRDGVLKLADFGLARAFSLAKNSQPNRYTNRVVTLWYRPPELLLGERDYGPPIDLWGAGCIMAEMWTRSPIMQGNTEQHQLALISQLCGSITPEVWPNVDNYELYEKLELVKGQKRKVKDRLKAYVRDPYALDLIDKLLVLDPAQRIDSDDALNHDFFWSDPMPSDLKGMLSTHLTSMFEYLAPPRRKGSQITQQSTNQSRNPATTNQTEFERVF", "experiment": "Inhibition of CDK9 (unknown origin) by ATP competitive based analysis"}, "BV-2 [20]": {"tested_on": "BV-2", "experiment": "Anti-inflammatory activity in mouse BV-2 cells assessed as reduction in LPS-induced TNFalpha expression at 4 uM incubated for 1 hr followed by LPS stimulation and measured after 24 hrs by immunofluorescence based laser confocal microscopy", "format": "functional, cell-based", "settings": "time 25.0 hrs"}, "[21]": {"experiment": "Toxicity in ICR mouse model of scopolamine-induced cognitive dysfunction assessed as effect on locomotor activity by measuring effect on swimming speed at 15 mg/kg, po by Morris water maze test", "format": "organism-based", "settings": "in vivo"}, "BV-2 [22]": {"tested_on": "BV-2", "experiment": "Anti-inflammatory activity in mouse BV-2 cells assessed as reduction in LPS-induced TNFalpha production at 8 uM incubated for 1 hr followed by LPS stimulation and measured after 24 hrs by ELISA relative to control", "format": "functional", "settings": "time 25 hrs"}, "[23]": {"target": "Cyclin-dependent kinase 7 (Homo sapiens, UniProt P50613)", "sequence (P50613 whole entry)": "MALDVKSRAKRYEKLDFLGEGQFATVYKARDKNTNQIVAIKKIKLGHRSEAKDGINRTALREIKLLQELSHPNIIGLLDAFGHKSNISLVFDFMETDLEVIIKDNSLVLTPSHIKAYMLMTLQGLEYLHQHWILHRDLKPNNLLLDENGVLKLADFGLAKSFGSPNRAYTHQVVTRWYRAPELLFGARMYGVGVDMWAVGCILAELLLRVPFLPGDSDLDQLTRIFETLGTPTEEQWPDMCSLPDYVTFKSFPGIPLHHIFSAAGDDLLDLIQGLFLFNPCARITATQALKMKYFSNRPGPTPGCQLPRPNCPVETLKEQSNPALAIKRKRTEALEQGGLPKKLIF", "experiment": "Inhibition of CDK7 (unknown origin) by ATP competitive based analysis"}, "[24]": {"target": "Glycogen synthase kinase-3 alpha (Homo sapiens, UniProt P49840)", "sequence (P49840 whole entry)": "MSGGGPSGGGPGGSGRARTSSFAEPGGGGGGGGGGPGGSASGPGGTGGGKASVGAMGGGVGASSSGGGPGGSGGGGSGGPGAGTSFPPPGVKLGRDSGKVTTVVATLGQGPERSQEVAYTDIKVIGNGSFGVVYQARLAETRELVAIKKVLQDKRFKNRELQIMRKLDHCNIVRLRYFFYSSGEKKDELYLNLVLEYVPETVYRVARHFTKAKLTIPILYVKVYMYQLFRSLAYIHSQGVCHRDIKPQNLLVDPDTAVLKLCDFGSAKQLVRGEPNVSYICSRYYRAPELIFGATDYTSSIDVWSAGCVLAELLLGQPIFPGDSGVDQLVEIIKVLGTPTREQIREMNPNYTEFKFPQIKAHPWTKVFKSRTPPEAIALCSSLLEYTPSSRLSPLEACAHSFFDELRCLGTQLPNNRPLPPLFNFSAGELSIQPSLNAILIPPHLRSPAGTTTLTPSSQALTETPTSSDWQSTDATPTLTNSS", "experiment": "Inhibition of GSK3alpha (unknown origin) by ATP competitive based analysis"}, "[25]": {"target": "Mitogen-activated protein kinase 13 (Homo sapiens, UniProt O15264)", "sequence (O15264 whole entry)": "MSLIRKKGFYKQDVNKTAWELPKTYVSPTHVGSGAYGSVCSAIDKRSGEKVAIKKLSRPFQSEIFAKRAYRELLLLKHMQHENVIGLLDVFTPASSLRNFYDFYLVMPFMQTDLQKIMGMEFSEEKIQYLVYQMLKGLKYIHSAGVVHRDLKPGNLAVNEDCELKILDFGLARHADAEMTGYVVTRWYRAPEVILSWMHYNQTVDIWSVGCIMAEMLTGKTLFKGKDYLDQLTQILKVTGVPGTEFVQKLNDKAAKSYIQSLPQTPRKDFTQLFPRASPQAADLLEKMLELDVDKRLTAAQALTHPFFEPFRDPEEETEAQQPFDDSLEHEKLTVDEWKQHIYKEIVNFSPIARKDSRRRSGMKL", "experiment": "Inhibition of p38MAPK delta (unknown origin) by ATP competitive based analysis"}, "[26]": {"experiment": "Cmax in Sprague-Dawley rat at 5 mg/kg, iv measured upto 24 hrs by LC-MS/MS analysis", "format": "ADME, organism-based", "set-up": "route intravenous, dose 5 mg/kg, time <=24", "settings": "in vivo"}, "[27]": {"target": "Mitogen-activated protein kinase 1 (Homo sapiens, UniProt P28482)", "sequence (P28482 whole entry)": "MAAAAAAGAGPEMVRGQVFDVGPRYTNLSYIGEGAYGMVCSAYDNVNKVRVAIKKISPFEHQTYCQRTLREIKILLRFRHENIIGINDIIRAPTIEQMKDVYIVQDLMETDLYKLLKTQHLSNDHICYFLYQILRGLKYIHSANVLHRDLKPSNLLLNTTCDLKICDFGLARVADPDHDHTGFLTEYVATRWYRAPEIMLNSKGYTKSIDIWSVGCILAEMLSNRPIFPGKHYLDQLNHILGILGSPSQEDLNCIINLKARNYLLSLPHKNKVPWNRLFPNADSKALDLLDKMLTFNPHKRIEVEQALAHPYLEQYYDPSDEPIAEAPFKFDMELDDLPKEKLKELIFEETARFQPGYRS", "experiment": "Inhibition of ERK2 (unknown origin) by ATP competitive based analysis"}, "[28]": {"experiment": "MRT (0 to t) in Sprague-Dawley rat at 5 mg/kg, iv measured upto 24 hrs by LC-MS/MS analysis", "format": "ADME, organism-based", "settings": "in vivo"}, "[29]": {"target": "Glycogen synthase kinase-3 beta (Homo sapiens, UniProt P49841)", "sequence (P49841 whole entry)": "as the sequence (Q9WV60 whole entry, looked up) above, with P390T, A392T, T400A, A402T counted along it", "experiment": "biochemical", "description": "Inhibition of recombinant human N-terminal His6-tagged GSK3beta H350L mutant expressed in baculovirus infected Sf21 cells using prephosphorylated polypeptide as substrate incubated for 1 min followed by substrate addition and measured after 30 mins by Kinase-Glo luminescence assay"}, "[30]": {"experiment": "Cmax in Sprague-Dawley rat at 10 mg/kg, po measured upto 24 hrs by LC-MS/MS analysis", "format": "ADME, organism-based", "set-up": "route oral, dose 10 mg/kg, time <=24", "settings": "in vivo"}, "Homo sapiens [31]": {"species_on_record": "Homo sapiens", "experiment": "Selectivity index, ratio of IC50 for ERK2 (unknown origin) to IC50 for GSK-3 beta (unknown origin) by ATP competitive based analysis"}, "Homo sapiens [32]": {"species_on_record": "Homo sapiens", "experiment": "Selectivity index, ratio of IC50 for JNK2 (unknown origin) to IC50 for GSK-3 beta (unknown origin) by ATP competitive based analysis"}, "[33]": {"experiment": "Oral bioavailability in Sprague-Dawley rat at 10 mg/kg measured upto 24 hrs by LC-MS/MS analysis", "format": "ADME, organism-based", "settings": "in vivo"}}, "note": "Activity calls are given as the source filed them. No cut-off for these calls is given here."}
{"smiles": "NC(=O)c1sc(-c2ccnc(NC(=O)C3CC3)c2)nc1OCCCC1CCN(Cc2ccc(F)cc2)CC1", "values": [{"measurement": "clearance", "setting": "[1]", "value": 42.5, "unit": "mL/min/kg"}, {"measurement": "Activity", "setting": "BV-2 [2]", "value": "Dose-dependent effect"}, {"measurement": "Activity", "setting": "Mus musculus", "value": "Active"}, {"measurement": "IC50", "setting": "[3]", "value": "> 300", "unit": "nM"}, {"measurement": "Ratio IC50", "setting": "Homo sapiens [4]", "value": 200}, {"measurement": "half-life", "setting": "[5]", "value": 4.3, "unit": "h"}, {"measurement": "Ratio IC50", "setting": "Homo sapiens [6]", "value": 200}, {"measurement": "IC50", "setting": "[7]", "value": "> 300", "unit": "nM"}, {"measurement": "IC50", "setting": "[8]", "value": "> 300", "unit": "nM"}, {"measurement": "IC50", "setting": "[9]", "value": 37.8, "unit": "nM"}, {"measurement": "Activity", "setting": "N2a", "value": "inactive"}, {"measurement": "Ratio IC50", "setting": "Homo sapiens [10]", "value": 200}, {"measurement": "Ratio IC50", "setting": "Homo sapiens [11]", "value": 200}, {"measurement": "Ratio", "setting": "[12]", "value": 21.6, "unit": "ng/kg"}, {"measurement": "IC50", "setting": "[13]", "value": "> 300", "unit": "nM"}, {"measurement": "Activity", "setting": "[14]", "value": 14.3, "unit": "%"}, {"measurement": "AUC(0-t)", "setting": "[15]", "value": 1960, "unit": "ng·h/mL"}, {"measurement": "Ratio IC50", "setting": "Homo sapiens [16]", "value": 200}, {"measurement": "MRT last at 24 h", "setting": "[17]", "value": 9.9, "unit": "h"}, {"measurement": "Activity", "setting": "BV-2 [18]", "value": "Active"}, {"measurement": "IC50", "setting": "[19]", "value": 108, "unit": "nM"}, {"measurement": "Activity", "setting": "BV-2 [20]", "value": "Active"}, {"measurement": "Activity", "setting": "[21]", "value": "Non-Toxic"}, {"measurement": "inhibition at 8 µM", "setting": "BV-2 [22]", "value": 100, "unit": "%"}, {"measurement": "IC50", "setting": "[23]", "value": "> 300", "unit": "nM"}, {"measurement": "IC50", "setting": "[24]", "value": 12, "unit": "nM"}, {"measurement": "IC50", "setting": "[25]", "value": "> 300", "unit": "nM"}, {"measurement": "Cmax", "setting": "[26]", "value": 1000, "unit": "ng/mL"}, {"measurement": "IC50", "setting": "[27]", "value": "> 300", "unit": "nM"}, {"measurement": "MRT last at 24 h", "setting": "[28]", "value": 3.3, "unit": "h"}, {"measurement": "IC50", "setting": "[29]", "value": 3, "unit": "nM"}, {"measurement": "Cmax", "setting": "[30]", "value": 132, "unit": "ng/mL"}, {"measurement": "Ratio IC50", "setting": "Homo sapiens [31]", "value": 200}, {"measurement": "Ratio IC50", "setting": "Homo sapiens [32]", "value": 200}, {"measurement": "bioavailability", "setting": "[33]", "value": 30.3, "unit": "%"}]}
